The source of these data is article PMC4541410 (Scientific Reports, 2015).

Data set [1] deals with T1, gp41 6-HB formation between N36 and C34 (Human immunodeficiency virus type 1 group M subtype B, UniProt P04578).
T1 construct: gp41 NHR (“N36”, 546-581); made in house; host or cells: chemical solid-phase FMOC synthesis
The data set is described as follows: biochemical. Format: biochemical, HIV-1. The conditions noted are these: read-out: IC50, inhibition of 6-HB formation between C34 and N36; N36 1 μM preincubated with peptide 37 °C 30 min, then C34 1 μM; ELISA with mAb NC-1; triplicate. On the procedure: Inhibition of gp41 six-helix bundle formation by a testing peptide was determined with a sandwich ELISA described previously. […] A450 was determined by an ELISA reader (Ultra 384, Tecan).

Data set [2] concerns HIV-1Bal (subtype B, R5). The conditions noted are these: read-out: IC50, inhibition of infection by HIV-1Bal; M7 cells, 100 TCID50, p24 ELISA day 7; triplicate, repeated twice. The text has this: (§1) Then, the culture supernatants were changed to fresh media. On the fourth day post-infection, culture supernatants were collected for detection of p24 antigen by ELISA. […] Then, the culture supernatants were changed to fresh media. On the fourth day post-infection, the culture supernatants were discarded and fresh media were complemented again. The supernatants were collected on the seventh day post-infection and tested for p24 antigen by ELISA as previously described. The percent inhibition of p24 production was calculated.

Data set [3] has as its system HIV-1IIIB (subtype B, X4). As to conditions: read-out: IC50, inhibition of infection by HIV-1IIIB; MT-2 cells, 100 TCID50, p24 ELISA day 4; triplicate, repeated twice.
From the text: as §1

The test system of data set [4] is HIV-1IIIB (subtype B, X4). Briefly: Inhibition of HIV-1 IIIB infection by peptides in the presence of sera from HIV-1-infected patients. Format: cell-based. The conditions noted are these: for IC50: MT-2 cells, triplicate, mean ± SD. On the procedure: Inhibition of peptides on HIV-1IIIB (subtype B, X4)infection in the presence of HIV-1-infected patients’ sera was determined as previously described. Briefly, each peptide was mixed with serially diluted serum from an HIV-1-infected patient at room temperature for 30 min. Next, the mixture of peptide/serum and HIV-1 (100 TCID50) were added to MT-2 cells (1 × 10^5/ml) in RPMI 1640 medium containing 10% FBS. After incubation at 37 °C overnight, the culture supernatants were replaced with fresh culture medium.

The test system of data set [5] is preexisting antibodies in sera from HIV-1-infected patients. The data set is described as follows: Sandwich ELISA: cross-reactivity of peptides with preexisting antibodies in HIV-1-infected patients. Format: binding, human. As to conditions: peptide coated at 10 μg/ml, serially diluted sera, 37 °C 1 h, A450. On the procedure: A sandwich ELISA was conducted to determine the cross-reactivity of the peptides with the preexisting antibodies in HIV-1-infected patients. […] The wells were then blocked with 1% gelatin, followed by addition of 50 μl of serially diluted sera from HIV-1-infected patients and incubation at 37 °C for 1 h. Then, HRP-labeled goat-anti-human IgG (Abcam, UK) and TMB were added sequentially. A450 was determined with an ELISA reader (Ultra 384, Tecan).
On the technique in general: ELISA stands for enzyme-linked immunosorbent assay.

The target in data set [6] is T2, N36 (gp41 NHR peptide) (Human immunodeficiency virus type 1 group M subtype B, UniProt P04578).
T2 construct: gp41 NHR (“N36”, 546-581); made in house; host or cells: chemical solid-phase FMOC synthesis
T2 sequence (P04578 546-581): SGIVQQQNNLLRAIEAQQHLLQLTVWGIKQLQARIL
Briefly: CD spectroscopy and thermal midpoint analysis of peptide/N36 complexes. The data set is classed as physicochemical, HIV-1. As to the method: Briefly, each peptide or peptide mixture was dissolved in phosphate-buffered saline (PBS: 50 mM sodium phosphate and 150 mM NaCl, pH 7.2) at the final concentration of 10 μM and incubated at 37 °C for 30 min before cooling down to 4 °C. The CD spectra of each sample were acquired on a Jasco spectropolarimeter (Model J-815, Jasco Inc., Japan) at 4 °C using a 5 nm bandwidth, 0.1 nm resolution, 0.1 cm path length and an average time of 5.0 sec. Spectra were corrected by the subtraction of a blank corresponding to the solvent composition of each sample. Thermal midpoint analysis was used to determine the temperature at which 50% of the 6-HB formed by the CHR and NHR would decompose. It was monitored at 222 nm from 4 °C to 98 °C by applying a thermal gradient of 5 °C/min. The melting curve was smoothed and the midpoint of the thermal unfolding transition (Tm) values was calculated using Jasco software utilities as described above.

The subject of data set [7] is 92UG024 (D). The data set is classed as cell-based. The conditions noted are these: primary HIV-1 isolate, subtype D; read-out: IC50 (nM), infection by primary isolate 92UG024 (D).
The subject of data set [8] is NP1525 (A/E). Format: cell-based. The conditions noted are these: primary HIV-1 isolate, subtype A/E; read-out: IC50 (nM), infection by primary isolate NP1525 (A/E).
Data set [9] concerns 93BR020 (F). The data set is classed as cell-based. The conditions noted are these: primary HIV-1 isolate, subtype F; read-out: IC50 (nM), infection by primary isolate 93BR020 (F).
For data set [10], the system named is T20-resistant HIV-1 variant V38A. The data set is classed as cell-based.
The test system of data set [11] is T20-resistant HIV-1 variant V38A/N42D. Format: cell-based.
The test system of data set [12] is T20-resistant HIV-1 variant N42T/N43K. The data set is classed as cell-based.
Data set [13] deals with T20-resistant HIV-1 variant V38E/N42S. Format: cell-based.
Data set [14] relates to T20-resistant HIV-1 variant V38A/N42T. The data set is classed as cell-based.
The test system of data set [15] is 92UG029 (A). The conditions noted are these: read-out: IC50 (nM), infection by primary isolate 92UG029 (A); primary HIV-1 isolate, subtype A.
The subject of data set [16] is 94US_33931N (B). The conditions noted are these: read-out: IC50 (nM), infection by primary isolate 94US_33931N (B); primary HIV-1 isolate, subtype B.
In data set [17] the test system is 93IN101 (C). The conditions noted are these: read-out: IC50 (nM), infection by primary isolate 93IN101 (C); primary HIV-1 isolate, subtype C.
Data set [18] has as its system 92TH009 (A/E). The conditions noted are these: read-out: IC50 (nM), infection by primary isolate 92TH009 (A/E); primary HIV-1 isolate, subtype A/E.
Data set [19] deals with BCF020 (Group O). As to conditions: read-out: IC50 (nM), infection by primary isolate BCF020 (Group O), primary HIV-1 isolate.
Setting [20] is: in presence of serum of HIV-1-infected patient HPS-1, read-out: IC50 (nM), HIV-1 IIIB infection, HPS-1.
Setting [21] is: in presence of serum of HIV-1-infected patient HPS-2, read-out: IC50 (nM), HIV-1 IIIB infection, HPS-2.
Where [22] appears, read: in presence of serum of HIV-1-infected patient HPS-3, read-out: IC50 (nM), HIV-1 IIIB infection, HPS-3.
The mark [23] stands for this setting: in presence of serum of HIV-1-infected patient HPS-4, read-out: IC50 (nM), HIV-1 IIIB infection, HPS-4.
[24] abbreviates: in presence of serum of HIV-1-infected patient HPS-5, read-out: IC50 (nM), HIV-1 IIIB infection, HPS-5.

Like-named read-outs stand apart in the source and are kept apart here. Where a SMILES comes first, the peptide text is derived from it.

T1 sequence (P04578 546-581): as above

For `COc1ccc(S(=O)(=O)O)cc1N=Nc1c(S(=O)(=O)O)cc2cc(Nc3nc(Nc4ccccc4)nc(Nc4cc(C)c(N=Nc5cc(S(=O)(=O)O)cc6cc(S(=O)(=O)O)cc(O)c56)cc4OC)n3)ccc2c1O` [ADS-J1, reference compound], the IC50 in [1] is 2750 nM.
Turning to `CC[C@H](C)[C@H](NC(=O)[C@H](CO)NC(=O)[C@H](CCC(=O)O)NC(=O)[C@H](CCC(=O)O)NC(=O)[C@H](CCC(N)=O)NC(=O)[C@H](CCCCN)NC(=O)[C@H](CCCCN)NC(=O)[C@@H](NC(=O)[C@H](CCC(N)=O)NC(=O)[C@H](CCC(=O)O)NC(=O)[C@H](CCC(=O)O)NC(=O)[C@@H](NC(=O)[C@H](CCCCN)NC(=O)[C@H](CCCCN)NC(=O)[C@@H](NC(=O)[C@H](CC(C)C)NC(=O)[C@H](CCC(=O)O)NC(=O)[C@H](CCC(=O)O)NC(=O)[C@H](CO)NC(=O)[C@H](CCCCN)NC(=O)[C@H](CCCCN)NC(=O)[C@@H](NC(=O)[C@H](CC(C)C)NC(=O)[C@H](CCC(=O)O)NC(=O)[C@H](CCC(=O)O)NC(=O)[C@@H](NC(=O)[C@H](CCC(=O)O)NC(=O)[C@H](CCCNC(=N)N)NC(=O)[C@H](CC(=O)O)NC(=O)[C@H](Cc1c[nH]c2ccccc12)NC(=O)[C@H](CCC(=O)O)NC(=O)[C@H](CCSC)NC(=O)[C@H](Cc1c[nH]c2ccccc12)NC(C)=O)[C@@H](C)CC)[C@@H](C)CC)[C@@H](C)CC)[C@@H](C)CC)[C@@H](C)CC)C(=O)N[C@@H](CCCCN)C(=O)N[C@@H](CCCCN)C(N)=O` [AP1] (Ac-WMEWDREIEELIKKSEELIKKIEEQIKKQEESIKK-NH2), the IC50 came to 396 nM in [2]; 86.2 nM in data set [3]; 87.4 ± 54.8 nM in data set [4] (setting [20]); 70.1 ± 44.9 nM in [4] (setting [21]); 165 ± 26.6 nM in data set [4] (setting [22]); 89.5 ± 20.6 nM in data set [4] (setting [23]). Moreover, the IC50 in [4] (setting [24]) was 68.5 ± 22.6 nM. The “Fold change of IC50, HPS-1” value in data set [4] (HPS-1 relative to N) is 0.8. Also, the “Fold change of IC50, HPS-2” value in [4] (HPS-2 relative to N) is 0.6. For the same compound, the “Fold change of IC50, HPS-3” value in data set [4] (HPS-3 relative to N) worked out at 1.5. The “Fold change of IC50, HPS-4” value in data set [4] (HPS-4 relative to N) is given as 0.8. Besides, the “Fold change of IC50, HPS-5” value in data set [4] (HPS-5 relative to N) came to 0.6. Moreover, the “reactivity with antibodies in sera from five HIV-1-infected patients” value in [5] is “none of the three artificial peptides AP1, AP2 and AP3 was recognized”. Besides, the “Tm of complex with N36” value in [6] (CD thermal denaturation at 222 nm, 4 to 98 °C, 5 °C/min, 10 μM in PBS pH 7.2) is 59.6 ^oC. For the same compound, in data set [6] (CD, peptide/N36 mixture 10 μM in PBS pH 7.2, 4 °C), the “α-helix content of complex with N36” value was found to be 65.36%.
Take Enfuvirtide: the IC50 came to 30.2 nM in data set [2]; 13.6 nM in data set [3]; 15.5 ± 3.5 nM in data set [7]; 29.7 ± 6.9 nM in [8]; 24.5 ± 3.6 nM in data set [9]; 943 ± 46.4 nM in [10]. For the same compound, the IC50 is more than 2000 nM in [11]; more than 2000 nM in [12]; more than 2000 nM in data set [13]; more than 5000 nM in data set [14]; 128 ± 20.5 nM in [4] (setting [20]); 134 ± 44.9 nM in data set [4] (setting [21]). Further, the IC50 in data set [4] (setting [22]) was 157 ± 22 nM; in data set [4] (setting [23]), more than 200 nM; in data set [4] (setting [24]), more than 200 nM; in data set [15], 8.6 ± 1.7 nM; in data set [16], 16.2 ± 2.8 nM; in data set [17], 16.8 ± 6.5 nM. Moreover, the IC50 was 14.2 ± 12.4 nM in data set [18] and 30.8 ± 0.5 nM in data set [19].
